# Measured values reported in patent US8785457B2 (Cellzome Limited, priority 2009, dated 2014).
# Experiments:
# PI3K delta (PI3 Kd) = target: T1, PI3K delta (PI3 Kd) (Homo sapiens, UniProt O00329); assay: kinobeads assay, PI3K delta; type: binding; conditions: kinobeads assay, Table 6; read-out: Inhibition values (IC50) PI3Kd
# T1 construct: endogenous in cells; host or cells: Jurkat, clone E6-1 (ATCC TIB-152) cell lysate
# Procedure, shortened: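 Competitive binding in Jurkat cell lysate (5 mg/ml total protein): test compounds at various concentrations competed with beads bearing immobilized phenylmorpholin-chromen ligand. Bead-bound kinases were eluted and quantified by antibody dot blot with infrared detection; IC50 values came from dose-response curves.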
# [1] = system: S6RP serine-240/244 phosphorylation; assay: In vitro Phospho-S6 cellular assay (pS6RP S240/244) in HEK293T/17 cells; type: cell-based; conditions: Homo sapiens, 2 hours, read-out: pS6 IC50
# Procedure, shortened: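 HEK293T/17 cells were seeded at 40,000 (pS6RP) or 80,000 (pAkt) cells/well in DMEM with 2% FCS. They were exposed to 8 compound concentrations (0.1% DMSO) for 2 h at 37 °C and then lysed. Phosphoprotein was quantified by MesoScale electrochemiluminescence sandwich immunoassay, and the sigmoidal variable-slope dose-response was fitted.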
# T1 sequence (O00329 whole entry): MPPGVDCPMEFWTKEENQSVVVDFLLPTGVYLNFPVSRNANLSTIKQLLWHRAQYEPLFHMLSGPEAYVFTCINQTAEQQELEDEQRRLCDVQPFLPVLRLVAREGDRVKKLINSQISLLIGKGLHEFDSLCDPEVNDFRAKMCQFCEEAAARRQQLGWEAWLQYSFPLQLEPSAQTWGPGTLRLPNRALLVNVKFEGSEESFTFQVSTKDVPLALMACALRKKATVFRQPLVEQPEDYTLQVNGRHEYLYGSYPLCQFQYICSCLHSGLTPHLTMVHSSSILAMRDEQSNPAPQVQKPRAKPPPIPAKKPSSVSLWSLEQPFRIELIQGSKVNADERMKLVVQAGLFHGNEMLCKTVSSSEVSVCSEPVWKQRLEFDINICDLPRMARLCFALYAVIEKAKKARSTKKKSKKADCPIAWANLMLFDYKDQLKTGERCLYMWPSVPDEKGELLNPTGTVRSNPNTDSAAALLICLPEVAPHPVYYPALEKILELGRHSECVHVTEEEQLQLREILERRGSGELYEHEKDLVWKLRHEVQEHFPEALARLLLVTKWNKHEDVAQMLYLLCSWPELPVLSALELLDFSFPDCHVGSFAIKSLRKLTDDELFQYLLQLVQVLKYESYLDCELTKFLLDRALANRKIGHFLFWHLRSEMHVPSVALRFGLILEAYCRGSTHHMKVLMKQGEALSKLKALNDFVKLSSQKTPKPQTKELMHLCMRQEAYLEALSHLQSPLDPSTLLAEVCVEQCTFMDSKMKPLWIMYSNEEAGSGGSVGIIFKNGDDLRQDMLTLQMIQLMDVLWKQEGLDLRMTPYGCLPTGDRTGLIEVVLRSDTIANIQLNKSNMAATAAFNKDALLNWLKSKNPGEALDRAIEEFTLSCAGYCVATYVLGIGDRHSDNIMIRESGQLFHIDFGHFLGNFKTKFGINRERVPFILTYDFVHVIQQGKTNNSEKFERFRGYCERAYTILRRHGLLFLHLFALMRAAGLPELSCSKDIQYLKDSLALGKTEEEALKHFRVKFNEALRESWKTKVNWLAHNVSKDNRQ
# T1 sequence (P27986 whole entry partner): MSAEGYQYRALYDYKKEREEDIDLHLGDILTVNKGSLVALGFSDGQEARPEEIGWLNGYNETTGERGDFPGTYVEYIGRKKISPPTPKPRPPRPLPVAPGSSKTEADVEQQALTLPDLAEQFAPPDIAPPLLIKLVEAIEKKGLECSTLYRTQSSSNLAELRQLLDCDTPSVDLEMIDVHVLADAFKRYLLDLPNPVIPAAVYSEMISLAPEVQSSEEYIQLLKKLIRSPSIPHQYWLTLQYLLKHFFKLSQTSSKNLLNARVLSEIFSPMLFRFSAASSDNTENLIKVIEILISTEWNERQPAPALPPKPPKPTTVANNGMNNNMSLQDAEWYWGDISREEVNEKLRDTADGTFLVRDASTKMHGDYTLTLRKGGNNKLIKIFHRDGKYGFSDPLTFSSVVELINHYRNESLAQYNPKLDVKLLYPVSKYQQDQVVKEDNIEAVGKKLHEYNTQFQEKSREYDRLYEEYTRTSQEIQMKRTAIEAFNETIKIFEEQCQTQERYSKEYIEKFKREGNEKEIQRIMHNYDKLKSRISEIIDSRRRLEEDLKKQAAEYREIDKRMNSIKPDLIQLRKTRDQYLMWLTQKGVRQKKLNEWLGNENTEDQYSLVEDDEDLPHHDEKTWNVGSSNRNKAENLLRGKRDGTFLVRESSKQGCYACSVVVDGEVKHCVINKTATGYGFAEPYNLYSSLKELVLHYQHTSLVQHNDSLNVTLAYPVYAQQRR
SMILES,IC50 (PI3K delta (PI3 Kd)),IC50 [1]
"CCOC(=O)N1Cc2nc(-c3ccc(NC(=O)NC4CC4)cc3F)nc(N3CCOC[C@@H]3C)c2C1 [Example 131, (S)-ethyl 2-(4-(3-cyclopropylureido)-2-fluorophenyl)-4-(3-methylmorpholino)-5H-pyrrolo[3,4-d]pyrimidine-6(7H)-carboxylate]",> 10000 nM,99 nM
"CCOC(=O)N1Cc2nc(-c3ccc(NC(=O)Nc4ccncc4)cc3)nc(N3CCOC[C@@H]3C)c2C1 [Example 121, (S)-ethyl 4-(3-methylmorpholino)-2-(4-(3-(pyridin-4-yl)ureido)phenyl)-5H-pyrrolo[3,4-d]pyrimidine-6(7H)-carboxylate]",> 10000 nM,33 nM
"C[C@H]1COCCN1c1nc(-c2ccc(NC(=O)Nc3cccc(O)n3)cc2)nc2c1CN(C)C2 [Example 80, (S)-1-(6-hydroxypyridin-2-yl)-3-(4-(6-methyl-4-(3-methylmorpholino)-6,7-dihydro-5H-pyrrolo[3,4-d]pyrimidin-2-yl)phenyl)urea]",> 10000 nM,89 nM
"CCNC(=O)Nc1ccc(-c2nc3c(c(N4CCOCC4)n2)CCN(C(=O)NCC)C3)cc1 [Example 94, N-ethyl-2-(4-(3-ethylureido)phenyl)-4-morpholino-5,6-dihydropyrido[3,4-d]pyrimidine-7(8H)-carboxamide]",> 10000 nM,565 nM
"CCNC(=O)Nc1ccc(-c2nc3c(c(N4CCOCC4)n2)CN(C(=O)OCC)C3)cc1 [Example 70, Ethyl 2-(4-(3-ethylureido)phenyl)-4-morpholino-5H-pyrrolo[3,4-d]pyrimidine-6(7H)-carboxylate]",1000 to 10000 nM,133 nM

# Results, then the molecule that gave them:
IC50 (PI3K delta (PI3 Kd)),IC50 [1],SMILES
> 10000 nM,35 nM,"CCOC(=O)N1CCc2c(nc(-c3ccc(NC(=O)NC4CC4)cc3)nc2N2CCOC[C@@H]2C)C1 [Example 78, (S)-ethyl 2-(4-(3-cyclopropylureido)phenyl)-4-(3-methylmorpholino)-5,6-dihydropyrido[3,4-d]pyrimidine-7(8H)-carboxylate]"
> 10000 nM,258 nM,"CCNC(=O)Nc1ccc(-c2nc3c(c(N4CCOC[C@@H]4C)n2)CCN(C(=O)CO)C3)cc1 [Example 102, (S)-1-ethyl-3-(4-(7-(2-hydroxyacetyl)-4-(3-methylmorpholino)-5,6,7,8-tetrahydropyrido[3,4-d]pyrimidin-2-yl)phenyl)urea]"
> 10000 nM,243 nM,"CCNC(=O)Nc1ccc(-c2nc3c(c(N4CCOC[C@@H]4C)n2)CN(CC(F)(F)F)C3)cc1 [Example 68, (S)-1-ethyl-3-(4-(4-(3-methylmorpholino)-6-(2,2,2-trifluoroethyl)-6,7-dihydro-5H-pyrrolo[3,4-d]pyrimidin-2-yl)phenyl)urea]"
> 10000 nM,143 nM,"CCNC(=O)Nc1ccc(-c2nc3c(c(N4CCOC[C@@H]4C)n2)CN(CC(C)(C)C)C3)cc1 [Example 67, (S)-1-ethyl-3-(4-(4-(3-methylmorpholino)-6-neopentyl-6,7-dihydro-5H-pyrrolo[3,4-d]pyrimidin-2-yl)phenyl)urea]"
